Source: paper PMC5674823, “Cloning, expression and identification of KTX-Sp4, a selective Kv1.3 peptidic blocker from Scorpiops pococki” (Cell & Bioscience, 2017)
Bridge positions count the residues as written; N and C are the ends. Ends that are not written are not given here.

Experiments:
[1] = target: T1, mKv1.1-AEHS/PSGN (Mus musculus, UniProt P16388, A352P/E353S/H355G/S357N); assay: Whole-cell patch-clamp, turret mutant Kv1.1-AEHS/PSGN expressed in HEK293T cells; assay type: cell-based; details: four Kv1.1 turret residues replaced by those of Kv1.3, mean ± SE of six experiments, SEM, read-out: IC50 on Kv1.1-AEHS/PGSN mutant channel
T1 construct: expressed in transfected cells; host or cells: HEK293T cells, pIRES2-EGFP vector
T1 sequence (P16388 whole entry A352P/E353S/H355G/S357N): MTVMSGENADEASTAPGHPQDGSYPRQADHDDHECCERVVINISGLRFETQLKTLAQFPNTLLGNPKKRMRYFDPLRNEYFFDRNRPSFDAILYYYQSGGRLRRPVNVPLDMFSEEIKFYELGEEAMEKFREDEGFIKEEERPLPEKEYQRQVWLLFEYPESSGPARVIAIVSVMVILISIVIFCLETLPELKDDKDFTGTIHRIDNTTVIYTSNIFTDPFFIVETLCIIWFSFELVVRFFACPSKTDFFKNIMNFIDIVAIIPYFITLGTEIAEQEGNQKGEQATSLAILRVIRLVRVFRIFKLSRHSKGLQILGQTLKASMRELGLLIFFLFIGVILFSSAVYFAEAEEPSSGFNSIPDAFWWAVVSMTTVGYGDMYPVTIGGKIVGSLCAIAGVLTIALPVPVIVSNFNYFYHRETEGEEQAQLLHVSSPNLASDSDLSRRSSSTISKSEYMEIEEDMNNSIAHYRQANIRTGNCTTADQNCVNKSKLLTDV
Description: (§1) Jurkat E6-1 T cells (ATCC TIB152) and HEK293T cells (ATCC ACS4500) were maintained in RPMI medium 1640 (Invitrogen, Carlsbad, CA, USA) and Dulbecco’s modified Eagle’s medium (DMEM) (Life Technologies, GrandIsland, NY, USA), supplemented with 10% fetal bovine serum (Life Technologies), 100 units/ml penicillin, 100 μg/ml streptomycin, respectively. Cells were cultured in a humidified incubator at 37 °C with 5% CO2. The cDNAs encoding mKv1.1, mKv1.1-AEHS/PSGN, hKv1.2 and mKv1.3 [18] were subcloned into the XhoI/BamHI sites of a bicistronic vector, pIRES2-EGFP (Clontech, USA), then transiently transfected into HEK293-T cells using Lipofectamine 2000 (Invitrogen) for electrophysiological experiments.
(§2) Whole-cell patch-clamp recordings were performed using an EPC 9 amplifier (HEKA Elektronik, Lambrecht/Pfalz, Germany) at room temperature (22–24 °C). Pipettes pulled from borosilicate glass (BF 150-86-10; Sutter Instrument Company, Novato, CA, USA) had resistances of 2–4 MΩ when filled with the internal solution. The internal pipette solution for recording Kv currents on DRG neurons contained: 120 mM potassium gluconate, 20 mM KCl, 10 mM EGTA, 10 mM HEPES, 5 mM Na2-ATP, 2 mM MgCl2, 1 mM CaCl2 (pH 7.3 withKOH). […]

[2] = tested on: mKv1.1; assay: Whole-cell patch-clamp, Kv1.1 heterologously expressed in HEK293T cells; assay type: cell-based, mouse; details: 1 μM peptide
Description: as §1, §2

[3] = tested on: hKv1.2; assay: Whole-cell patch-clamp, Kv1.2 heterologously expressed in HEK293T cells; assay type: cell-based, human; details: 1 μM peptide
Description: as §1, §2

[4] = target: T2, mKv1.3 (Mus musculus, UniProt P16390); assay: Whole-cell patch-clamp, mKv1.3 heterologously expressed in HEK293T cells; assay type: cell-based
T2 construct: expressed in transfected cells; host or cells: HEK293T cells, pIRES2-EGFP vector
T2 sequence (P16390 whole entry): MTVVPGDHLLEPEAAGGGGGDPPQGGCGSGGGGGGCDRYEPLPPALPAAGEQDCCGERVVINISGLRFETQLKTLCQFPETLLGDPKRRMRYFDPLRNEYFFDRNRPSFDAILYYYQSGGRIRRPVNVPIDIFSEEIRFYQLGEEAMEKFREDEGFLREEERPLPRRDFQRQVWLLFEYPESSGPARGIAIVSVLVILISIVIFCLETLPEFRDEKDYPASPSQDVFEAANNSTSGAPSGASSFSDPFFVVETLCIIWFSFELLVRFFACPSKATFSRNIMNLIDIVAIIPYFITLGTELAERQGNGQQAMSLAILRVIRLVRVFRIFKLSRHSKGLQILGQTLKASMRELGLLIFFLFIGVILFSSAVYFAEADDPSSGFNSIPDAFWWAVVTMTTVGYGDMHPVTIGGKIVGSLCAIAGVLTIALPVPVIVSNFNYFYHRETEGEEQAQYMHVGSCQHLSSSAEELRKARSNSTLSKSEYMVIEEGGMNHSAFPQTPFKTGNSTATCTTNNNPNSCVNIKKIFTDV
Description: as §1, §2

[5] = tested on: voltage-gated potassium channels on DRG cells; assay: Whole-cell patch-clamp, voltage-gated K+ currents in acutely isolated DRG cells; assay type: cell-based, mouse; details: 1 μM peptide, +50 mV 400 ms pulse from -60 mV
Description: Mouse spinal columns were removed and placed in ice-cold HBSS; neurons were acutely dissociated and maintained as described. In brief, laminectomies were performed and bilateral DRG were dissected out. After removal of connective tissues, DRG were transferred to a 1 ml Ca^2+/Mg^2+-free HBSS containing 2 μl saturated NaHCO3, 0.35 mg L-cysteine and 20 U papain (Worthington, Lakewood, NJ, USA), and incubated at 37 °C for 10 min. The suspension of DRG was centrifuged, the supernatant was removed, 1 ml Ca^2+/Mg^2+-free HBSS containing 4 mg collagenase type II and 1.25 mg dispase type II (Worthington) was added and incubated at 37 °C for 10 min. After digestion, neurons were pelleted, suspended in neurobasal medium containing 2% B-27 supplement, 1% L-glutamine, 100 U/ml penicillin plus 100 μg/ml streptomycin, and 50 ng/ml nerve growth factor, plated on a 12 mm coverslip coated with poly-L-lysine (10 μg/ml) and cultured under a humidified atmosphere of 5% CO2/95% air at 37 °C for 18–24 h before use.
Whole-cell patch-clamp recordings were performed using an EPC 9 amplifier (HEKA Elektronik, Lambrecht/Pfalz, Germany) at room temperature (22–24 °C). Pipettes pulled from borosilicate glass (BF 150-86-10; Sutter Instrument Company, Novato, CA, USA) had resistances of 2–4 MΩ when filled with the internal solution. […]

[6] = target: T3, endogenous Kv1.3 expressed by human Jurkat T cells (Homo sapiens, UniProt P22001); assay: Whole-cell patch-clamp, endogenous Kv1.3 currents in Jurkat T cells; assay type: cell-based
T3 construct: endogenous Kv1.3 expressed by human Jurkat T cells; endogenous in cells; host or cells: Jurkat E6-1 T cells (ATCC TIB152)
T3 sequence (P22001 whole entry): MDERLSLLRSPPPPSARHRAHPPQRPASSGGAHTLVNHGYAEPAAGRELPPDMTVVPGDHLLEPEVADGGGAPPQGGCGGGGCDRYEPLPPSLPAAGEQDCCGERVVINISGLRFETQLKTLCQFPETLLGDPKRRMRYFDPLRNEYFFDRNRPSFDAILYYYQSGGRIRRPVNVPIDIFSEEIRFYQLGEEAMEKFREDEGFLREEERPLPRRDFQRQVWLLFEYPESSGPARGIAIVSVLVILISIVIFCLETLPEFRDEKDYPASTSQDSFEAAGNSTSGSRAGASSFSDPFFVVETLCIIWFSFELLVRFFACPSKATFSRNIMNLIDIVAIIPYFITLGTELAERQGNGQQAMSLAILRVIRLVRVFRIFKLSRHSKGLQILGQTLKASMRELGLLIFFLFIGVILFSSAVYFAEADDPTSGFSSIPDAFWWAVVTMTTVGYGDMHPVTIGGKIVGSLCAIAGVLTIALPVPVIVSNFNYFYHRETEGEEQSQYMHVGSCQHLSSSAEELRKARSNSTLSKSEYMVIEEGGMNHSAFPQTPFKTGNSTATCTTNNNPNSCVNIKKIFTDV
Description: as §1, §2

Sequence: AFPSENPTGGCPLSDNVCSSYCKKNKFGNEGKCHGTICKCSIK (disulfide 11-33, 18-38, 22-40 (inferred)) [KTX-Sp4]
- IC50 [1]: 12.1 ± 4.08 nM
- Reduction of maximum current of Kv1.1 channel [2]: about 20.85%
- Reduction of maximum current of Kv1.2 channel [3]: ~7.23%
- IC50 ([4]; HEK293T cells, steady-state current at end of depolarizing pulse, n = 10, read-out: IC50 on wild-type mKv1.3-mediated steady-state current): 24.7 ± 10.8 nM
- Blocking activity on Kv1.3, times weaker than that of J123 ([4]; comparison with J123): 31 times
- Inhibitory effect on voltage-gated K+ currents on DRG cells [5]: no significant inhibitory effect
- Reversibility of suppressive effect on Kv1.3 after washout ([6]; Jurkat T cells, bath application, washout): partially reversible
- IC50 ([6]; whole-cell patch-clamp, +50 mV 400 ms pulse from -60 mV, almost zero cytosolic Ca2+ pipette solution, Hill fit, n = 8, read-out: IC50 of inhibition of Kv1.3 current in Jurkat T cells): 235 ± 3.36 nM
